Values after ≈ are worked out from the molar mass of the structure shown. Non-standard residues stand in square brackets, D forms with d. Residues, ends and D or L forms follow the SMILES beside them. Phe(3,4-Cl2) = N[C@@H](Cc1ccc(Cl)c(Cl)c1)C(=O)O; Phe(4-CF3) = N[C@@H](Cc1ccc(C(F)(F)F)cc1)C(=O)O; Phe(4-Cl) = N[C@@H](Cc1ccc(Cl)cc1)C(=O)O; Phe(4-Me) = Cc1ccc(C[C@H](N)C(=O)O)cc1; 2Nal = N[C@@H](Cc1ccc2ccccc2c1)C(=O)O; Nva = CCC[C@H](N)C(=O)O
Tests used:
[1] = system: Staphylococcus aureus (NRS 384); assay: microbe, parasite or virus in culture; format: cell-based; settings: NRS 384
Description: According to the Standards of Clinical and Laboratory Standards Institute (CLSI) of the USA for antimicrobial drug susceptibility test operation standards, a micronutrient serial twofold dilution method was used to determine minimum inhibitory concentrations (MICs) of all 60 peptides (S/N: LV-1˜LV-60) against Staphylococcus aureus (NRS 384). The experiment was repeated 5 times in parallel. […] An antibacterial drug Levofloxacin and an AMP Cbf-K16 (sequence of Cbf-K16: […]) were used as positive controls to evaluate the antibacterial effect of the antimicrobial peptides on Staphylococcus aureus (NRS 384).

rabbit red blood cells = format: cell-based; settings: red cells of rabbit, 1 h
Experimental: Fresh rabbit blood ([…]) was collected and centrifuged at 500 g for 5 min, a supernatant was discarded, and red blood cells were repeatedly washed with phosphate-buffered saline (PBS, 0.01 M, pH 7.4) until the supernatant was clear. The red blood cells (RBCs) were resuspended to 10 mL, and diluted 25-fold with PBS (0.01 M, pH 7.4) to prepare a red blood cell suspension with a concentration of about 2×10^8 RBC/mL. The AMPs were subjected to gradient dilution with normal saline (0.85%, w/v, NaCl) according to a multiple dilution method, final concentrations of the SMPs were 1.95, 3.9, 7.8, 15.6, 31.3, 62.5, 125, 250, 500, 1000, and 2000 μg/mL. 100 μl of polypeptide solution was taken and added to a 96-well plate with 5 replicates for each concentration; 100 μl of rabbit blood with a red blood cell count of about 2×10^8 RBC/mL was then added to each well, the plate was incubated at 37° C. for 1 h, centrifuged at 500 g for 5 min, 100 μl of supernatant was taken and transferred to a new 96-well plate, and an optical density (OD) at a wavelength of 541 nm was measured using a microplate reader. Triton X-100 (10 mg/mL as a starting concentration, two-fold gradient dilution) was used as a positive control group. A hemolysis rate was calculated using the following formula: Hemolysis rate (%)=[(OD541 of experimental group-OD541 of negative control group)/(OD541 of positive control group−OD541 of negative control group)]×100% Specific results of the hemolysis test are shown in Table 6. Minimum hemolytic concentration (MHC): a lowest drug concentration that can cause 10% hemolysis.

Compound	MIC against Staphylococcus aureus (NRS 384) [1] [µg/mL]	MHC (minimum hemolytic concentration, lowest concentration causing 10% hemolysis) (rabbit red blood cells) [µg/mL]
CC(=O)N[C@@H](CCCNC(=N)N)C(=O)N[C@@H](CCCNC(=N)N)C(=O)N[C@@H](CC(C)C)C(=O)N[C@@H](CC(C)C)C(=O)N[C@@H](Cc1ccc2ccccc2c1)C(=O)N[C@@H](CCCNC(=N)N)C(=O)N[C@@H](CC(C)C)C(=O)N[C@@H](CCCNC(=N)N)C(=O)N[C@@H](Cc1ccc2ccccc2c1)C(=O)N[C@@H](CCCNC(=N)N)C(=O)N[C@@H](CCCNC(=N)N)C(N)=O [LV-31] (Ac-RRLL[2Nal]RLR[2Nal]RR-NH2)	4 (≈ 2.31 µM)	>1000
CC(=O)N[C@@H](CCCNC(=N)N)C(=O)N[C@@H](CCCCN)C(=O)N[C@@H](CC(C)C)C(=O)N[C@@H](CC(C)C)C(=O)N[C@@H](Cc1ccc(Cl)cc1)C(=O)N[C@@H](CCCCN)C(=O)N[C@@H](CC(C)C)C(=O)N[C@@H](CCCCN)C(=O)N[C@@H](Cc1ccc(Cl)cc1)C(=O)N[C@@H](CCCCN)C(=O)N[C@@H](CCCNC(=N)N)C(N)=O [LV-37] (Ac-RKLL[Phe(4-Cl)]KLK[Phe(4-Cl)]KR-NH2)	4 (≈ 2.52 µM)	>1000
CC(=O)N[C@@H](CCCNC(=N)N)C(=O)N[C@@H](CCCCN)C(=O)N[C@@H](CC(C)C)C(=O)N[C@@H](CC(C)C)C(=O)N[C@@H](Cc1ccc(C)cc1)C(=O)N[C@@H](CCCCN)C(=O)N[C@@H](CC(C)C)C(=O)N[C@@H](CCCCN)C(=O)N[C@@H](Cc1ccc(C)cc1)C(=O)N[C@@H](CCCCN)C(=O)N[C@@H](CCCNC(=N)N)C(N)=O [LV-41] (Ac-RKLL[Phe(4-Me)]KLK[Phe(4-Me)]KR-NH2)	4 (≈ 2.59 µM)	>1000
Ac-RKLLFRLKFRK-NH2 [LV-32]	4	>1000
CC(=O)N[C@@H](CCCNC(=N)N)C(=O)N[C@@H](CCCNC(=N)N)C(=O)N[C@@H](CC(C)C)C(=O)N[C@@H](CC(C)C)C(=O)N[C@@H](Cc1ccc2ccccc2c1)C(=O)N[C@@H](CCCCN)C(=O)N[C@@H](CC(C)C)C(=O)N[C@@H](CCCCN)C(=O)N[C@@H](Cc1ccc2ccccc2c1)C(=O)N[C@@H](CCCCN)C(=O)N[C@@H](CCCNC(=N)N)C(N)=O [LV-54] (Ac-RRLL[2Nal]KLK[2Nal]KR-NH2)	8 (≈ 4.86 µM)	>1000
CC(=O)N[C@@H](CCCNC(=N)N)C(=O)N[C@@H](CCCCN)C(=O)N[C@@H](CC(C)C)C(=O)N[C@@H](CC(C)C)C(=O)N[C@@H](Cc1ccc(C(F)(F)F)cc1)C(=O)N[C@@H](CCCCN)C(=O)N[C@@H](CC(C)C)C(=O)N[C@@H](CCCCN)C(=O)N[C@@H](Cc1ccc(C(F)(F)F)cc1)C(=O)N[C@@H](CCCCN)C(=O)N[C@@H](CCCNC(=N)N)C(N)=O [LV-39] (Ac-RKLL[Phe(4-CF3)]KLK[Phe(4-CF3)]KR-NH2)	8 (≈ 4.84 µM)	>1000
CCC[C@H](NC(=O)[C@H](CCCCN)NC(=O)[C@H](CCCNC(=N)N)NC(C)=O)C(=O)N[C@@H](CCC)C(=O)N[C@@H](Cc1ccc2ccccc2c1)C(=O)N[C@@H](CCCNC(=N)N)C(=O)N[C@@H](CCC)C(=O)N[C@@H](CCCCN)C(=O)N[C@@H](Cc1ccc2ccccc2c1)C(=O)N[C@@H](CCCNC(=N)N)C(=O)N[C@@H](CCCCN)C(N)=O [LV-43] (Ac-RK[Nva][Nva][2Nal]R[Nva]K[2Nal]RK-NH2)	8 (≈ 4.99 µM)	>1000
CC(=O)N[C@@H](CCCNC(=N)N)C(=O)N[C@@H](CCCCN)C(=O)N[C@@H](CC(C)C)C(=O)N[C@@H](CC(C)C)C(=O)N[C@@H](Cc1ccc(Cl)c(Cl)c1)C(=O)N[C@@H](CCCCN)C(=O)N[C@@H](CC(C)C)C(=O)N[C@@H](CCCCN)C(=O)N[C@@H](Cc1ccc(Cl)c(Cl)c1)C(=O)N[C@@H](CCCCN)C(=O)N[C@@H](CCCNC(=N)N)C(N)=O [LV-38] (Ac-RKLL[Phe(3,4-Cl2)]KLK[Phe(3,4-Cl2)]KR-NH2)	8 (≈ 4.83 µM)	>1000

Reference: patent US20250304620A1, “ANTIMICROBIAL PEPTIDE AND APPLICATION THEREOF” (priority 2023, published 2025)
